Measured values: patent US20130274233A1, “MODULATORS OF HEDGEHOG SIGNALING PATHWAY” (priority 2012, published 2013)

Columns and labels:
[1] = system: Hh pathway activity; assay: Gli-luciferase reporter assay, Shh-induced Hh pathway activity (ShhLightII cells); format: cell-based
Excerpt: NIH/3T3 cells were maintained in DMEM containing 10% (v/v) calf serum, penicillin, streptomycin, and L-glutamine. HEK293, L, cos 7, and suFU−/− mouse embryonic fibroblast cells were maintained in DMEM containing 10% (v/v) fetal bovine serum, penicillin, streptomycin, and L-glutamine. Smo::EGFP, SmoM2::GFP, and Ivs::tagRFPT were cloned into pBabe to generate retroviral particles for infection. Smo::EGFP/Ivs::tagRFPT and SmoM2::GFP/Ivs::tagRFPT stable cell lines were generated through viral infection of NIH/3T3^12. A ShhLightII Gli reporter cell line was obtained from the American Type Culture Collection (ATCC) and used in luciferase reporter assays to measure Hh pathway activity. The cell line contains a stably integrated Gli-responsive Firefly luciferase reporter and a constitutive Renilla luciferase expression construct^33. Subclones expressing Smo or SmoM2 in ShhLightII cells were used for chemical epistasis analyses.
(§1) Hh activity assays were performed using ShhLightll cells, Smo/Lightll cells, SmoM2/Lightll cells, and suFU−/− mouse embryonic fibroblasts. In the suFU−/− cells, Hh activity was measured after co-transfection with Gli driven firefly luciferase and TK-renilla luciferase reporters^41. Wnt activity was measured in 293 cells co-transfected with Top-flash and TK-renilla luciferase reporters^42. Cells were cultured and treated in 96 well assay plates (Corning) and incubated with Duo-Glo luciferase substrates (Promega) to measure firefly and renilla luciferase activity sequentially using a Top Count NX Microplate Scintillation and Luminescence Counter (Perkin Elmer). The renilla luciferase signal was used to normalize the firefly reporter activity.
(§2) ShhLightII cells and SmoM2/LightII cells were cultured and treated in 96 well assay plates (Corning) and incubated with Duo-Glo luciferase substrates (Promega) to sequentially measure firefly and renilla luciferase activity. Smo, or GFP, expression plasmids were co-transfected into 3T3 cells together with a Gli-responsive firefly reporter and a TK-renilla luciferase reporter contruct to monitor effects of Smo overexpression. Co-transfection of the two reporter constructs was conducted in assays measuring Hh pathway activity in suFU−/− cells. Wnt activity was measured following co-transfection of a Top-flash and renilla luciferase reporter. In both Hh and Wnt activity assays, renilla luciferase reporter activity, or mass of protein, was used to normalize expression values. Luciferase signal was read by TopCount NX Microplate Scintillation and Luminescence Counter (Perkin Elmer). Quantitative PCR probes for Ptch1, Gli1, and β-actin were purchased from Applied Biosystems. Reactions and measurements were performed using on an Applied Biosystems 7900HT at Harvard FAS Center of System Biology. β-actin was used to normalize Ptch1 and Gil1 values.

[2] = system: Smo; assay: Bodipy-cyclopamine competition assay in Cos 7 cells expressing Smo; format: binding; conditions: for competition of Bodipy-Cyc binding to Smo: cells over-expressing Smo, 5 nM Bodipy-cyclopamine
Procedure: Cos 7 cells were transfected with a plasmid co-expressing Smo and a nuclear localized form of tagRFPT (pCIT-Smo). An empty parental construct (pCIT), and a construct that co-expresses SmoM2, were used as controls to assess specificity and background noise. Three days after transfection, cells were incubated with 5 nM Bodipy-cyclopamine, with or without other compounds for 1 hour at 37 °C. Cells were washed, fixed and stained with Hoechst. Images were collected by an Opera High Content Screen System. Bodipy fluorescence was quantified specifically for transfected cells (determined by red tagRFPT+ nucleus) using a program developed by the authors with Acapella 2.0 software. All of the images were scanned with identical microscopic settings and analyzed with the same input parameters.
Cos 7 cells were transfected with a plasmid that co-expresses Smo and a nuclear localized tagRFPT marker (pCIT-Smo). The empty parental construct (pCIT) and a construct that co-express SmoM2 were used as controls to assess specificity and background signal. Three days after transfection, cells were incubated with 5 nM Bodipy-cyclopamine, with or without additional compounds, for 1 hour at 37° C. Cells were then fixed and stained with Hoechst. Images were collected with the Opera High Content Screen System. Fluorescence values were assessed in transfected cells (red nuclei) with a program developed by the authors using Acapella 2.0 software. All of images were scanned with identical microscopic setting and analyzed with the same input parameters.

[3] = system: cerebellar granule neuron precursors (CGNPs) from P7 Ptch1+/− mice; assay: CGNP proliferation assay (pH3 positive cells); format: cell-based
Procedure: CGNP primary cells were isolated from P7 Ptch1+/− mice as previously reported^43 and immediately seeded in poly-D-lysine coated imaging plates (Greiner Bio-one). Compounds were applied 2 hours post seeding, for either 36 (FIG. 5a-b) or 72 hours (FIG. 5d-e). After completion of each experimental regimen, cells were fixed with 4% paraformaldehyde (Electron Microscopy Sciences), and stained with anti-pH3 antibody (Upstate; 1:100) followed by a secondary antibody (Invitrogen) and Hoechst (Invitrogen). Images were then collected using a confocal microscope. Cell proliferation, as marked by a pH3 signal, was quantified with an in-house program developed by the authors using Acapella 2.0 software. Identical microscopic settings were used in each analysis and identical input parameters were implemented for each experiment.
CGNP primary cells were isolated from P7 Ptch1+/− mice as previously reported^44. Cells were seeded in poly-D-lysine coated imaging plates (Greiner Bio-one), treatments were applied 2 hours thereafter and last for 36 hours. Cells then were fixed with 4% paraformaldehyde (Electron Microscopy Sciences), and stained with anti-pH3 antibody (Upstate; 1:100) followed by a secondary antibody (Invitrogen) and Hoechst (Invitrogen). Images were collected and cell proliferation quantified with a program developed by the authors utilizing Acapella 2.0 software. All of the images in each experiment were collected with identical microscopic settings and analyzed with identical input parameters.

[4] = system: Wnt signaling activity; assay: Wnt Top-flash reporter assay; format: cell-based; conditions: with or without Wnt3a
Procedure: as §1, §2

[5] = system: Hh pathway activity; assay: Priming and withdrawal of compound followed by Shh stimulation, Gli-luciferase reporter (hypersensitivity); format: cell-based; conditions: for hypersensitivity to Hh pathway stimulation after priming with and removal of compound, Gli-luciferase: priming 24 hours, washout, then Shh (or SAG) stimulation
Procedure: as §1
Following the removal of drug containing medium, and extensive washing, cells were stimulated with either Hh ligand, or the direct-binding Smo agonist SAG^17,18.
as §2

Row | IC50 ([1]; Mus musculus, Shh Light II, 3T3/Shh-LightII cells, stimulus Shh, read-out: IC50, inhibition of Shh-induced expression of Gli-luciferase reporter) [µM] | IC50 ([2]; Cos7/Smo expression, stimulus none, read-out: IC50, competition of BODIFY-cyclopamine-Smo binding) [µM] | hypersensitivity to Hh pathway stimulation after priming with and removal of compound, Gli-luciferase [5] | EC50 ([5]; cells treated 24 hours, compound withdrawal prior to Shh addition, read-out: EC50 of induced response to priming) [µM] | SMILES | competition of Bodipy-Cyc binding to Smo [2] | Shh driven hyperactivation after removal of compound, CGNP proliferation assay ([3]; CGNPs, after removal of compound) | IC50 ([3]; Mus musculus, Neuron, pH 3, Ptch ± CGNP, stimulus Shh, read-out: IC50, Shh induced cell proliferation marked by pH 3) [µM] | effect on Shh-induced pH3 marked proliferation of CGNPs ([3]; Ptch1+/− CGNPs, Shh) | effect on Wnt pathway reporter activity [4] | effect of co-stimulation on Shh-induced transcriptional response ([1]; 10 μM FA together with Shh) | effect on GDC0449 inhibition of Shh-stimulated CGNP proliferation ([3]; FA 10 μM co-administered with GDC0449) | Shh-driven CGNP proliferation ([3]; FA 10 μM with Shh) | number of proliferative pH3 positive CGNPs ([3]; FA 120 μM)
1 | 2 | 0.1 | no Shh driven hyperactivation | – | CCN(CC)c1ccc(/C=N/NC(=O)c2ccc(O)cc2)cc1 [DY131] | effective competitor | no Shh driven hyperactivation | < 0.625 | dramatically decreased | absence of an inhibitory activity | – | – | – | –
2 | – | – | higher induction of pathway activity | ~4 | CC1(C)O[C@@H]2C[C@H]3[C@@H]4C[C@H](F)C5=CC(=O)C=C[C@]5(C)[C@@]4(F)[C@@H](O)C[C@]3(C)[C@]2(C(=O)CO)O1 [FA, fluocinolone acetonide] | dose-dependent competition | – | – | – | no change was detected | dose-dependent enhancement | impaired | markedly enhanced | elevated
